Assay results taken from US6747021B2, “Cryptophycin compound” (Eli Lilly and Company, priority 2000, dated 2004).
Like-named read-outs stand apart in the source and are kept apart here.

What was measured:
[1] = tested on: COLON ADENOCARCINOMA-26/A; type: in vivo, murine; conditions: Balb/C female mice
Description: (§1) Inhibition of tumors transplanted into mice is an accepted procedure for studying the efficacy of antitumor agents (Corbett, et al., In vivo Methods for Screening and Preclinical Testing; Use of rodent solid tumors for drug discovery., In: Anticancer Drug Development Guide: Preclinical Screening, Clinical Trials, and Approval, B. Teicher (ed), Humana Press Inc., Totowa, N.J., Chapter 5, pages 75-99 (1997); (Corbett, et al., Int. J. Pharmacog., 33, Supplement, 102-122 (1995)). Murine tumors or human xenographs were implanted essentially as described by Corbett in In vivo Methods for Screening and Preclinical Testing; Use of rodent solid tumors for drug discovery. Briefly, the murine tumor or human xenograph was implanted subcutaneously using either 12-gauge trocar implants or counted number of cells. The location for the trocar insertion is midway between the axillary and inguinal region along the side of the mouse. The trocar is slipped approximately ¾ of an inch subcutaneously up toward the axilla before discharging the tumor fragment, and pinching the skin as the trocar is removed. Alternatively, human tumor cells prepared from a […] of donor tumors (5×10^6 cells) were implanted subcutaneously in a hind-leg of a male or female nude mouse (Charles River). Either a test compound in vehicle or vehicle alone was administered by intravenous bolus injection (iv), intraperitoneal injection (ip), or oral gavage (po). Each treatment group, as well as a group of untreated control animals, consisted of five animals per group in each experiment. Subcutaneous tumor response was monitored by tumor volume measurement performed twice each week over the course of the experiment (60-120 days). Body weights were taken as a general measure of toxicity. The subcutaneous tumor data were analyzed by determining the median tumor weight for each treatment group over the course of the experiment and calculating the tumor growth delay as the difference in days for the treatment versus the control tumors to reach a volume of either 500 or 1000 mm^3.
(§2) Cryptophycin-309 (309) was tested against a variety of murine and human tumors substantially as described supra. Cryptophycin-55 glycinate (55-GLY), Taxol, and Adriamycin (Adria) were also included in certain tests for purposes of comparison. Cryptophycin 55 glycinate is known in the art (WO 98/08505, Example 9) and has the following structure: [drawing 9]
(§3) Tumor Weight(mg)=(a×b^2)/2 where a=tumor length (mm) and b=tumor width (mm).
(§4) Tumor Growth Delay=T−C where T is the median time (days) required for the treatment group tumors to reach a predetermined size, and C is the median time (days) for the control group tumors to reach the same size. Tumor-free survivors are excluded from this calculation, and are tabulated separately (Tumor Free).
(§5) Log Kill=Tumor Growth Delay/(3.32)(Td)
(§6) where Tumor Growth Delay is as previously defined and Td is tumor volume doubling time (days), estimated from the best fit straight line from a log-linear growth plot of the control group of tumors in exponential growth (100-800 mg range)
(§7) %T/C mass—The treatment and control groups are measured when the control group tumors reach approximately 700 to 1200 mg in size (median group). The median tumor weight of each group is determined (including zeros). The T/C value in percent is an indication of antitumor effectiveness. A T/C≦42% is considered significant antitumor activity. A T/C<10% is considered to indicate highly significant antitumor activity.
(§8) Body Weight Loss Nadir—A body weight loss nadir (mean of group) of greater than 20% or drug deaths greater than 20% are considered to indicate an excessively toxic dosage in single course trials.
(§9) Activity Rating—the Activity Rating is derived from the Log Kill according to the following table: […]

[2] = tested on: MAMMARY ADENOCARCINOMA 16/C; type: in vivo, murine; conditions: C3H/HeN female mice
Description: as §1, §2, §3, §4, §5, §6, §7, §8, §9

[3] = tested on: MAMMARY ADENOCARCINOMA-17/ADR/Resist.; type: in vivo, murine; conditions: IV 30 mg/kg/inj days 1,3,5,7,9; total dose 150 mg/kg; C3H female mice
Description: as §1, §2, §3, §4, §5, §6, §7, §8, §9

[4] = tested on: PANCREATIC DUCTAL ADENOCARCINOMA #02; type: in vivo, murine; conditions: BDF1 female mice
Description: as §1, §2, §3, §4, §5, §6, §7, §8, §9

[5] = tested on: COLON ADENOCARCINOMA 51/A; experiment: Early stage murine colon adenocarcinoma 51/A subcutaneous tumor assay; type: in vivo; conditions: IV 28 mg/kg/inj days 3,5,7,9,11; total dose 140 mg/kg; CDF female mice
Description: as §1, §2, §3, §4, §5, §6, §7, §8, §9

[6] = Toxicity relative to other cryptophycins (general statement); conditions: compared with other cryptophycins; no test described
[7] = IV 15 mg/kg/inj days 1,3,5,7,9, total dose 75 mg/kg
[8] = IV 23 mg/kg/inj days 1,3,5,7,9, total dose 115 mg/kg
[9] = IV 35 mg/kg/inj days 1,3,5,7,9, total dose 175 mg/kg
[10] = IV 20 mg/kg/inj days 3,5,7,9,11, total dose 100 mg/kg
[11] = IV 30 mg/kg/inj days 3,5,7,9,11, total dose 150 mg/kg
[12] = IV 20 mg/kg/inj days 1,3,5,7,9, total dose 100 mg/kg, experiment #
[13] = IV 30 mg/kg/inj days 1,3,5,7,9, total dose 150 mg/kg, experiment #
[14] = IV 33 mg/kg/inj days 1,3,5,7,9, total dose 165 mg/kg, experiment ##

SMILES: COc1ccc(C[C@H]2NC(=O)/C=C/C[C@@H]([C@H](C)[C@@H](OC(=O)CN)[C@@H](Cl)c3ccccc3)OC(=O)[C@H](CC(C)(C)C)OC(=O)[C@H](C)CNC2=O)cc1Cl [Cryptophycin 309, Cryptophycin-309]
- % T/C MASS [1, 7]: 14%
- ACTIVITY RATING [1, 7]: + (0.7-1.2)
- DRUG DEATHS [1, 7]: 0/5
- GROWTH DELAY [1, 7]: 6.65 days
- LOG KILL [1, 7]: 1.2
- MEDIAN TUMOR WEIGHT [1, 7]: 126 mg
- % T/C MASS [1, 8]: 0%
- ACTIVITY RATING [1, 8]: +++ (2.0-2.8)
- DRUG DEATHS [1, 8]: 0/5
- GROWTH DELAY [1, 8]: 12.75 days
- LOG KILL [1, 8]: 2.3
- MEDIAN TUMOR WEIGHT [1, 8]: 0 mg
- % T/C MASS [1, 9]: 0%
- ACTIVITY RATING [1, 9]: +++ (2.0-2.8)
- DRUG DEATHS [1, 9]: 0/5
- GROWTH DELAY [1, 9]: 15.25 days
- LOG KILL [1, 9]: 2.7
- MEDIAN TUMOR WEIGHT [1, 9]: 0 mg
- % T/C MASS [2, 10]: 0%
- ACTIVITY RATING [2, 10]: ++++ (>2.8)
- DRUG DEATHS [2, 10]: 0/5
- GROWTH DELAY [2, 10]: 17 days
- LOG KILL [2, 10]: 3.9
- MEDIAN TUMOR WEIGHT [2, 10]: 0 mg
- % T/C MASS [2, 11]: 0%
- ACTIVITY RATING [2, 11]: ++++ (>2.8)
- DRUG DEATHS [2, 11]: 0/5
- GROWTH DELAY [2, 11]: 16.5 days
- LOG KILL [2, 11]: 3.8
- MEDIAN TUMOR WEIGHT [2, 11]: 0 mg
- % T/C MASS [3]: 0%
- ACTIVITY RATING [3]: ++++ (>2.8)
- DRUG DEATHS [3]: 0/5
- GROWTH DELAY [3]: 10.75 days
- LOG KILL [3]: 3.23
- MEDIAN TUMOR WEIGHT [3]: 0 mg
- % T/C MASS [4, 12]: 3.8%
- ACTIVITY RATING [4, 12]: ++ (1.3-1.9)
- DRUG DEATHS [4, 12]: 0/5
- GROWTH DELAY [4, 12]: 13 days
- LOG KILL [4, 12]: 1.7
- MEDIAN TUMOR WEIGHT [4, 12]: 63 mg
- % T/C MASS [4, 13]: 3.8%
- ACTIVITY RATING [4, 13]: ++ (1.3-1.9)
- DRUG DEATHS [4, 13]: 0/5
- GROWTH DELAY [4, 13]: 13 days
- LOG KILL [4, 13]: 1.7
- MEDIAN TUMOR WEIGHT [4, 13]: 64 mg
- % T/C MASS [4, 14]: 0%
- ACTIVITY RATING [4, 14]: +++ (2.0-2.8)
- DRUG DEATHS [4, 14]: 0/5
- GROWTH DELAY [4, 14]: 15.25 days
- LOG KILL [4, 14]: 2.7
- MEDIAN TUMOR WEIGHT [4, 14]: 0 mg
- % T/C MASS [5]: 0%
- ACTIVITY RATING [5]: +++ (2.0-2.8)
- DRUG DEATHS [5]: 0/6
- GROWTH DELAY [5]: 20.1 days
- LOG KILL [5]: 2.4
- MEDIAN TUMOR WEIGHT [5]: 0 mg
- toxicity [6]: lower toxicity than other cryptophycins
